Assay results taken from US10875856B2, “CPAP-tubulin module” (UNIVERSITAET ZU KOELN, priority 2015, dated 2020).
Entries after “also recorded” stand apart in the source; their conditions may differ. Read-outs that look alike come from different tables or passages of the source.

Columns and labels:
[1] = system: CPAP-tubulin interaction; assay: AlphaScreen assay of inhibition of the CPAP-tubulin interaction (normalized AlphaScreen signal; triplicate determination; TruHit kit as counter-control); assay type: binding
Source text: FIGS. 1 to 4, 19 and 20 show normalized AlphaScreen signal for conventional tubulin binders Vinblastin (FIG. 1), Paclitaxel (FIG. 2), Docetaxel (FIG. 3) Colchicin (FIG. 4), Bactallin III (FIG. 19) and Taxol (FIG. 20).
Most tubulin-binding agents act on spindle microtubules and thus prevent mitosis nonspecifically.
The Error bars in FIGS. 1 to 16, 19 and 20 indicate data from a triplicate determination. The TruHit Kit captures possible effects on AlphaScreen assay technology.

[2] = system: extra-centrosomes in cancer cells; assay: cell-based assay of centrosome declustering activity
Experimental: (§1) To evaluate the effect of compound (A) in cancer cells, a spectrum of breast cancer-(BT549, MDA-MB-231), lung cancer-(TKI-sensitive PC9, TKI-resistant H1975^T790M or HCC827 with C-met amplification) and hepatocellular carcinoma-(POP10) cells was treated with compound (A) for 24 h.

[3] = system: BT549, MDA-MB-231, PC9, H1975T790M, HCC827, POP10 cells; assay: cancer cell proliferation, spectrum of cancer cell lines; assay type: cell-based; conditions: range over BT549, MDA-MB-231, PC9, H1975T790M
Experimental: as §1
The effects of compound (B) on a spectrum of breast cancer-(BT549, MDA-MB-231),NSCLC-(PC9, TM-resistant H1975T790M, HCC827-GR) and hepatocellular-carcinoma-(POP10)-cells were tested by treatment with compound (B) for 72 hrs.

[4] = system: cancer cells; assay: 24 h EdU pulse labeling experiment; assay type: cell-based; conditions: 24 h pulse labeling
[5] = system: MDA-MB-231 cells expressing tubulin-GFP; assay: live cell experiments, MDA-MB-231 tubulin-GFP; assay type: cell-based
[6] = system: Plk-4-inducible MCF10A cells; assay: tolerability and cellular toxicity in Plk-4-inducible MCF10A; assay type: cell-based, human
Source text: Building on Example 1, a proof-of-principle experiment was established in which lentiviral-mediated transduction of constitutive or doxycycline-inducible CPAP^F375A that cannot interact with tubulin (hereafter CPAPΔT) was introduced into non-transformed human mammary epithelial MCF10A cells. These MCF10A cells are engineered to regulate centrosome amplification via doxycycline-inducible overexpression of Polo-Like-Kinase (PLK4). Introducing CPAPΔT prematurely activated Plk4-induced extra-centrosomes in interphase to nucleate microtubules and prevented them from clustering.
Since compound (A) is a tubulin binder, its tolerability and cellular toxicity in comparison to taxol in Plk-4-inducible MCF10A was evaluated.

[7] = system: subcutaneous human prostate tumor cell (PC3) xenografts; assay: PC3 xenograft in nude mice; assay type: in vivo
Experimental: To evaluate the anti-tumor activity of compound (A), compound (A) was delivered to nude mice bearing subcutaneous human prostate tumor cell (PC3) xenografts. Compound (A) was administered (10 mg/kg) by oral gavage once per day and the rate of tumor growth was monitored. Compared to vehicle treated controls, it was noticed a reduction in tumor growth rate in compound-(A)-treated mice. Importantly, the anti-tumor activity of compound (A) could be observed as determined by reduced tumor volume with respect to control at day 10.
(§2) To evaluate if compound (B) has anti-tumor activity in vivo, nude mice bearing subcutaneous human prostate (PC3) and breast (MDA-MB-231) tumor xenografts were used.
(§3) In each case, two groups of mice bearing tumor volume >100 mm^3 were used. Compound (B) (10 or 20 mg, Kg-1/day) by oral gavage was delivered. At the end of treatment, we measured the total tumor volume of compound (B)-treated groups and compared with vehicle-treated controls.

[8] = system: MCF10A (+Dox, extra centrosomes) and HCC827-GR cells; assay: live imaging of extra-centrosome cells; assay type: cell-based, human
[9] = system: 3D-organotypic cultures of H1975T790M, HCC827-GR and A549; assay: 3D organotypic culture invasion model; assay type: cell-based
Source text: Further, to test whether preventing CPAP-tubulin interaction could impair cancer cell invasiveness, a three-dimensional (3D) organotypic culture model for cancer cells was adapted that recapitulates many aspects of human epithelial cancer tissue architecture.

[10] = system: subcutaneous human breast (MDA-MB-231) tumor xenografts; assay: MDA-MB-231 xenograft in nude mice; assay type: in vivo
Experimental: as §2, §3

[11] = stability; assay type: physicochemical
[12] = solubility; assay type: physicochemical
[13] = system: Cep152, PCNT and CDK5RAP2 recruitment to interphase centrosomes of MCF10A cells; assay: PCM protein recruitment to interphase centrosomes (imaging, heat map intensity); assay type: cell-based, human; conditions: versus vehicle
Source text: Mechanisms by which compound (B) activates extra centrosomes to nucleate enhanced microtubules were identified. Peri-centriolar material (PCM) recruitment to centrosomes is required for microtubule nucleation.
To test this, we estimated the amounts of Cep152, PCNT and CDK5RAP2 recruitment to interphase centrosomes of compound (B)—treated MCF10A cells.

[14] = system: CPAP-tubulin interaction in MCF10A cells; assay: immunopurification of CPAP complexes from treated cells; assay type: cell-based, human; conditions: CPAP complexes from cytoplasmic extracts of MCF10A
Experimental: Finally, it was tested if compound (B) could prevent CPAP-tubulin interaction in cells and simultaneously enhance the ability of CPAP to bind its interacting proteins. CPAP complexes from cytoplasmic extracts of compound (B)-treated MCF10A cells were immunopurified.

[15] = system: two-centrosomes containing cells; assay: live imaging for microtubule toxic effect; assay type: cell-based
Experimental: Except compound (B), neither of the tested tubulin binders could perturb CPAP-tubulin interaction, enhance PCM recruitment to interphase centrosomes and prevent extra centrosomes from clustering. […] In addition, to rule out the possible microtubule toxic effect of compound (B), live imaging experiments were performed.

[16] = system: H827 cells; assay: cell proliferation with erlotinib, H827; assay type: cell-based
[17] = system: A549 cells; assay: cell proliferation with erlotinib, A549; assay type: cell-based

With `CCC(CO)Nc1ncc2cc3ccccc3nc2c1C#N` (racemic) [Racemic mixture of compounds C and C‘] as the molecule, how does the IC50 ([1]; values given in µM) read?
Its IC50 is 1.39 µM.

For `N#Cc1c(Cl)ncc2cc3ccccc3nc12` [Compound D], which IC50 ([1]; values in nM) is on record?
The IC50 was 0.023 µM.

Which IC50 ([1]; values given in µM) does the source give for `N#Cc1c(NCc2ccccc2)ncc2cc3ccccc3nc12` [Compound E] here?
The IC50 was 1.21 µM.

For `Nc1n[nH]c2ncc3cc4ccccc4nc3c12` [Compound F], which IC50 ([1]; values given in µM) is on record?
Its IC50 is 6.94 µM.

For `N#Cc1c(Sc2ccccc2)ncc2cc3ccccc3nc12` [Compound G], which IC50 ([1]; values in nM) is on record?
Its IC50 is 0.211 µM.

With `N#Cc1c(SCC(=O)Nc2ccccc2)ncc2cc3ccccc3nc12` [Compound I] as the molecule, how does the IC50 ([1]; values given in µM) read?
The IC50 was 1.76 µM.

Which IC50 ([1]; values given in µM) does the source give for `N#Cc1c(N2CCCCCC2)ncc2cc3ccccc3nc12` [Compound J] here?
Its IC50 is 6.32 µM.

Which IC50 ([1]; values given in µM) does the source give for `N#Cc1c(N2CCCCC2)ncc2cc3ccccc3nc12` [Compound L] here?
Its IC50 is 1.88 µM.

With `CC(=O)O[C@H]1C(=O)[C@@]2(C)[C@H]([C@H](OC(=O)c3ccccc3)[C@]3(O)C[C@H](OC(=O)[C@H](O)[C@@H](NC(=O)c4ccccc4)c4ccccc4)C(C)=C1C3(C)C)[C@]1(OC(C)=O)CO[C@@H]1C[C@@H]2O` [Paclitaxel, reference compound] as the molecule, how does the IC50 ([1]; values given in µM) read?
The IC50 was 52.6 µM.

Which “concentration causing declustering of extra-centrosomes in interphase” value ([2]; BT549 cells, 24 h treatment) does the source give for `CCCCNc1ncc2cc3ccccc3nc2c1C#N` [compound (A)] here?
Its value is 500 nM.

What about the IC50 ([3]; HCC827, POP10, treated 24 h) of the same molecule?
The IC50 was 860 to 2900 nM.

And the “number of cancer cells with EdU incorporation” value [4]?
Its value is “reduced number”.

And the “mitosis and cell fate in live cells” value [5]?
Its value is “prolonged mitosis with eventual apoptosis”.

And the “proliferation of MCF10A cells that harbor extra centrosomes” value [6]?
The value was “specifically inhibited”.

And the “concentration tolerated without defect in bipolar mitotic spindles” value ([6]; MCF10A cells with two centrosomes)?
Its value is “up to 10 μM”.

What about the “tumor growth rate versus vehicle” value ([7]; PC3, 10 mg/kg oral gavage once per day) of the same molecule?
Its value is “reduction”.

And the “tumor volume with respect to control” value ([7]; PC3, 10 mg/kg oral gavage once per day, day 10)?
Its value is “reduced”.

For `COc1ncc2cc3ccccc3nc2c1C#N` [compound (B), 3-Methoxybenzo[b][1,6]naphthyridine-4-carbonitrile], which “centrosome declustering activity (preventing extra centrosomes from clustering)” value ([2]; cancer cells) is on record?
The value was “potent; also recorded: prevented clustering of extra centrosomes”.

And the IC50 ([3]; HCC827-GR, POP10, treated 72 hrs)?
Its IC50 is 860 to 2900 nM.

And the “mitosis and cell fate in live imaging” value [8]?
The value was “prolonged mitosis with an apparent apoptosis”.

And the “prevention of actin-positive invasive protrusions from 3D spheres” value ([9]; 5 μM, H1975T790M, HCC827-GR, A549 organoids)?
The value was “sufficient to prevent”.

And the “cell death in organoids” value ([9]; H1975T790M organoids)?
The value was “activated caspase-positive cells”.

What about the organoid growth ([9]; treated organoids) of the same molecule?
The organoid growth was “did not grow further from its original size”.

And the “tumor growth rate versus vehicle” value ([7]; PC3, 10 or 20 mg/kg/day oral gavage)?
Its value is “significant reduction”.

And the “tumor volume with respect to control” value ([7]; PC3, after 10 days)?
The value was “reduced”.

What about the “body weights of treated animals” value ([7]; PC3 model, 10 or 20 mg/kg/day oral) of the same molecule?
The value was “did not change”.

What about the “tumor growth rate versus vehicle” value ([10]; MDA-MB-231, 10 or 20 mg/kg/day oral gavage) of the same molecule?
Its value is “significant reduction”.

What about the “tumor volume with respect to control” value ([10]; MDA-MB-231, after 31 days) of the same molecule?
The value was “reduced”.

What about the “body weights of treated animals” value ([10]; MDA-MB-231 model, 10 or 20 mg/kg/day oral) of the same molecule?
The value was “did not change”.

What about the “stability relative to compound (A)” value [11] of the same molecule?
The value was “increased”.

And the “solubility relative to compound (A)” value [12]?
The value was “increased”.

And the “recruitment of PCM proteins (Cep152, PCNT, CDK5RAP2) to interphase centrosomes” value [13]?
Its value is “enhanced amounts”.

And the “CPAP-tubulin interaction in cells” value [14]?
The value was “specifically perturbs”.

And the “concentration not affecting microtubule dynamics, cell cycle progression or mitotic spindle assembly” value [15]?
The value was “up to 5 μM”.

What about the “concentration not preventing formation of bipolar mitotic spindles” value [15] of the same molecule?
Its value is “up to 8 μM”.

For `C#Cc1cccc(Nc2ncnc3cc(OCCOC)c(OCCOC)cc23)c1` [erlotinib], which “centrosome clustering in H827” value ([2]; H827 cells, erlotinib treatment) is on record?
Its value is “does not affect centrosome clustering”.

What about the IC50 ([16]; H827, combined with 750 nM compound (A), read-out: IC50 of erlotinib in combinatorial treatment) of the same molecule?
Its IC50 is 30 nM.

And the IC50 ([16]; H827, single agent, read-out: IC50 of cell proliferation)?
The IC50 was 6900 nM.

And the IC50 ([17]; A549, single agent, read-out: IC50 of cell proliferation)?
Its IC50 is 5070 nM.

What about the IC50 ([17]; Homo sapiens, A549, A549, addition of 1.5 μM compound (A), read-out: IC50 of erlotinib in combinatorial treatment) of the same molecule?
Its IC50 is 500 nM.

And the IC50 ([17]; Homo sapiens, A549, A549, single agent, read-out: IC50 of cell proliferation)?
The IC50 was 5000 nM.

What about the “prevention of formation of invasive protrusions” value ([9]; 3D organotypic cultures of H1975 and A549) of the same molecule?
The value was “not”.

Which results are given for `CC(=O)O[C@H]1C(=O)[C@@]2(C)[C@H]([C@H](OC(=O)c3ccccc3)[C@]3(O)C[C@H](OC(=O)[C@H](O)[C@@H](NC(=O)c4ccccc4)c4ccccc4)C(C)=C1C3(C)C)[C@]1(OC(C)=O)CO[C@@H]1C[C@@H]2O` [taxol, reference compound]?
MCF10A cell proliferation regardless of extra centrosomes ([6]; 100 nM): non-selectively prevented; centrosome clustering in MCF10A ([6]; taxol treatment): did not affect centrosome clustering; concentration that collapsed the spindles [15]: 30 nM
